Measured values published in PubChem BioAssay (NCI).
Several values for one entry are separate records, joined by “and”; a condition that tells them apart may be missing. Identical values can stand only once.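 Where inhibition never reached the appropriate level, the endpoint shown equals the highest concentration tested. Otherwise, values were interpolated linearly from a five-concentration, 48-hour dose response in 96-well plates. At the GI50, growth is halved. TGI: total growth inhibition.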

Tests used:
Assay in all cases: NCI anticancer screen, dose series, 48 h
BT-549 breast = tested on: BT-549 breast
PC-3 prostate = tested on: PC-3 prostate
T-47D breast = tested on: T-47D breast
MCF7 breast = tested on: MCF7 breast
MDA-MB-231 breast = tested on: MDA-MB-231 breast
HS 578T breast = tested on: HS 578T breast

Compound	GI50 (BT-549 breast)	TGI (BT-549 breast) [µM]	GI50 (PC-3 prostate)	TGI (PC-3 prostate) [µM]	GI50 (T-47D breast)	TGI (T-47D breast) [µM]	GI50 (MCF7 breast)	TGI (MCF7 breast) [µM]	GI50 (MDA-MB-231 breast)	TGI (MDA-MB-231 breast) [µM]	GI50 (HS 578T breast)	TGI (HS 578T breast) [µM]
Cc1nnc(C[C@@H]2C=C(c3ccc(Cl)cc3)c3ccccc3-n3c(C)nnc32)o1	1.48 µM	29.2	3.53 µM	> 100	719 nM	> 92.7	0.221 µM	> 100	1.5 µM	> 100	0.578 µM	46.1
CC(=O)N[C@H](C)[C@@H](O)[C@@H](C)[C@@H]1OC(=O)/C=C/C=C(C)\C=C\[C@]2(C)C[C@@H](NS(C)(=O)=O)C=C[C@@H]2/C=C(C)/C=C/[C@H]1C	0.00898 µM and 0.0242 µM	> 43.5	0.00714 µM and 0.0129 µM	> 43.5	3.43 nM and 5.06 nM	> 43.5	0.00547 µM and 0.00591 µM	> 43.5	0.00125 µM and 0.0046 µM		0.0158 µM and 0.0164 µM	> 43.5
CCOC(=O)/C(=C/CC/C(C)=C/CC/C(C)=C/CCc1ccoc1)CC(=O)N1CCCCC1	4.03 µM	17.2	3.1 µM	17.9	2370 nM	8.65	2.11 µM	5.92	1.96 µM	4.17	5.07 µM	35.2
CCN(C(=O)N1CCN(c2cc3c(cc2F)c(=O)c(C(=O)O)cn3C2CC2)CC1)c1nc(-c2ccccc2)cs1	2.27 µM	7.91	2.74 µM	> 100	2570 nM	> 100	3.15 µM	> 100	2.11 µM	5.92	3.16 µM	25.9
O=C(COc1ccc(/C=C2\Oc3ccc4ccccc4c3C2=O)cc1)c1ccc([N+](=O)[O-])cc1	11.1 µM	26.4	9.36 µM	21.3	2850 nM	23.8	1.71 µM	20.3	19 µM	71.9	18.5 µM	57
Cc1cccc2c(C3=C(c4cn(C)c5ccccc45)C(=O)NC3=O)cn(C)c12	12.7 µM	> 25	18.9 µM	> 25	> 20000 nM	> 25	9.03 µM	> 25	> 19.6 µM	> 25	2.83 µM	17.3
Cc1cc(F)c(C(=O)Nc2cccc(-c3nncn3C(C)C)n2)cc1-n1cnc(C2CC2)c1	11.7 µM	54.8	16.6 µM	92.4	2010 nM	9.95	9.48 µM	55.2	18.1 µM	91.5	26.6 µM	> 100
NC(N)=NN=c1c(=O)c2ccccc2c1=O	15.7 µM	29.2	12.7 µM	29.8	23500 nM	50.4	8.89 µM	27.9	16 µM	33.7	10.1 µM	> 100
O=CC(OC(=O)c1ccccc1)C(OC(=O)c1ccccc1)C(COC(c1ccccc1)(c1ccccc1)c1ccccc1)OC(=O)c1ccccc1 (stereo unspecified)	23.4 µM	> 100	9.64 µM	24.7	4650 nM	22.7	6.38 µM	23.7	21.6 µM	> 100	33.2 µM	> 100
O=C(O)C1C2C=CC(O2)C1C(=O)NCc1cccnc1 (stereo unspecified)		> 100		> 100		> 100		> 100		> 100		> 100
Cc1cc(S(=O)(=O)/N=C(\N)Nc2cccc(O)c2)c(SCc2ccccc2)cc1Cl	19 µM	39.7	12.1 µM	> 100	19400 nM	75.7	11.5 µM	78.9	16.8 µM	41.2	24.4 µM	82.9
CC(C)C[C@H](CC(=O)O)C(=O)N[C@@H](Cc1c[nH]c2ccccc12)C(=O)N[C@@H](C)c1ccccc1	> 25 µM	> 25	> 25 µM	> 25	> 25000 nM	> 25	> 25 µM	> 25	> 25 µM	> 25	> 25 µM	> 25
Nc1nc(N)c2c(n1)NC(c1sc(Cl)nc1Cl)CC(c1ccccc1)=N2 (stereo unspecified)	3.93 µM	16.1	5.89 µM	24	3350 nM	22.1	3.56 µM	20.4	3.86 µM	16.5	2.44 µM	11.1
O=C(Nc1ccc(OS(=O)(=O)c2ccc(F)cc2)cc1)C12CC3CC(CC(C3)C1)C2	4.37 µM	75.8	0.647 µM	> 100	831 nM	> 100	0.641 µM	> 100	4.58 µM	52.7	5.9 µM	> 53.2
